In general, AC50 refers to the concentration giving half of the maximal activity seen.

The test system of experiment [1] is SUM149. Nature of the experiment: Cytotoxicity assay (Version 2), automated, AC50, with or without elastase. It counts as cell-based. The protocol: (§1) Cultivation of cells was performed according to standard procedures with the media recommended by the provider. The cells, in a total volume of 100 μL, were seeded in a 96-well plate with a white bottom (#3610). After a 24 h incubation period at 37° C. and […], the medium was exchanged by adding 90 μL fresh medium. The treatment started by adding the test compound in 10 μL of culture medium to the cells in triplicates. Concentrations ranging from 10^−5 M to 10^−13 M were chosen. Two identically treated sets of samples were prepared. One set was treated with the test compound alone, whereas to the second set the compound and 10 nM elastase was added followed by a 72 h incubation period at 37° C. and 5% CO2. The proliferation was detected using the MTT assay (ATCC). At the end of the incubation period the MTT reagent was added to all samples for 4 h. Lysis of the cells followed by addition of the detergent was done overnight. The formed dye was detected at 570 nm. The proliferation of untreated but otherwise identically handled cells was define as the […].
(§2) The Cytotoxicity assay (Version 2) was performed as above described. Some changes were applied as the assays were performed in an automated fashion and the IC50 values determination was changed. Here the change in metabolic activity of the cells, in percent, was calculated by normalization of the measured values to the absorbance values of medium containing wells without cells (=−100%) and the absorbance of the DMSO-treated cells (=0%). AC50 values (activity concentration at −50%) were determined by means of a 4 parameter Hill-fit using GeneData Screener software.

For experiment [2], the system named is HT29. The description is as above. Format: cell-based, human. The method, then: as §1, §2
Experiment [3] concerns 786-O. The description is as above. Format: cell-based, human. The method, then:
as §1, §2

In experiment [4] the test system is NCI H292. The experiment is described as above. It counts as cell-based, human. The method, then:
as §1, §2

The subject of experiment [5] is SUM149. Description: Cytotoxicity in vitro in the presence and absence of elastase (MTT). It counts as cell-based. The method, then:
as §1

In experiment [6] the test system is HT29. Described as above. Format: cell-based, human. The method, then:
as §1

The subject of experiment [7] is 786-O. The experiment is described as above. Format: cell-based, human. The method, then:
as §1

In experiment [8] the test system is NCI H292. The description is as above. It counts as cell-based, human. The protocol: as §1
Where [9] appears, read: read-out: SUM149 IC50 w elastase.
The mark [10] stands for this setting: read-out: 786-O IC50 w elastase.
The mark [11] stands for this setting: read-out: NCI H292 IC 50 w elastase.

Structures can show the parent of a compound that is named as a salt. Where two headings read alike, the source gives them in different places.

As for `CCCNC(=O)Nc1cccc(S(=O)(=O)Nc2cccc([C@@H](CC(=O)O)NC(=O)Nc3ccc(NC(=O)NCCOCCOCCOCCC(=O)N[C@@H](CC(=O)O)C(=O)N4CCC[C@H]4C(=O)N[C@H](C(=O)O[C@]4(CC)C(=O)OCc5c4cc4n(c5=O)Cc5c-4nc4cc(F)c(C)c6c4c5[C@@H](N(C)C)CC6)C(C)C)cc3)c2)c1` [Compound 20, (1S,9S)-1-(dimethylamino)-9-ethyl-5-fluoro-4-methyl-10,13-dioxo-2,3,9,10,13,15-hexahydro-1H,12H-benzo[de]pyrano[3′,4′:6,7]indolizino[1,2-b]quinolin-9-yl N-(14-{4-[({(1R)-2-carboxy-1-[3-({3-[(propylcarbamoyl)amino]benzene-1-sulfonyl}amino)phenyl]ethyl}carbamoyl)amino]anilino}-14-oxo-4,7,10-trioxa-13-azatetradecanan-1-oyl)-L-alpha-aspartyl-L-prolyl-L-valinate], the AC50 is 1.1 to 10 nM in experiment [1] (SUM149 cells, Version 2, with elastase, activity concentration at −50%, read-out: SUM149 AC50 +elastase); above 100 nM in experiment [1] (SUM149 cells, Version 2, without elastase, activity concentration at −50%, read-out: SUM149 AC50 −elastase); 11 to 100 nM in experiment [2] (HT29 cells, Version 2, with elastase, activity concentration at −50%, read-out: HT29 AC50 +elastase); above 100 nM in experiment [2] (HT29 cells, Version 2, without elastase, activity concentration at −50%, read-out: HT29 AC50 −elastase); 1.1 to 10 nM in experiment [3] (786-O cells, Version 2, with elastase, activity concentration at −50%, read-out: 786-O AC50 +elastase); above 100 nM in experiment [3] (786-O cells, Version 2, without elastase, activity concentration at −50%, read-out: 786-O AC50 −elastase). The AC50 was 1.1 to 10 nM in experiment [4] (NCI H292 cells, Version 2, with elastase, activity concentration at −50%, read-out: NCI H292 AC50 +elastase) and above 100 nM in experiment [4] (NCI H292 cells, Version 2, without elastase, activity concentration at −50%, read-out: NCI H292 AC50 −elastase).

As to `CCCNC(=O)Nc1cccc(S(=O)(=O)Nc2cccc([C@@H](CC(=O)O)NC(=O)Nc3ccc(NC(=O)NCCOCCOCCOCCC(=O)N[C@@H](CC(=O)O)C(=O)N4CCC[C@H]4C(=O)N[C@H](C(=O)O[C@]4(CC)C(=O)OCc5c4cc4n(c5=O)Cc5c-4nc4cc(F)c(C)c6c4c5[C@@H](NC(=O)OCc4ccccc4)CC6)C(C)C)cc3)c2)c1` [Compound 3, (1S,9S)-1-{[(benzyloxy)carbonyl]amino}-9-ethyl-5-fluoro-4-methyl-10,13-dioxo-2,3,9,10,13,15-hexahydro-1H,12H-benzo[de]pyrano[3′,4′:6,7] indolizino[1,2-b]quinolin-9-yl N-(14-{4-[({(1R)-2-carboxy-1-[3-({3-[(propylcarbamoyl)amino]benzene-1-sulfonyl}amino)phenyl]ethyl}carbamoyl)amino]anilino}-14-oxo-4,7,10-trioxa-13-azatetradecanan-1-oyl)-L-alpha-aspartyl-L-prolyl-L-valinate], the IC50 in experiment [5] (setting [9]) is 0.01 to 0.1 nM; in experiment [5] (read-out: SUM149 IC50 w/o) it was 10 to 100 nM; in experiment [6] (read-out: HT29 IC50 w elastase), 0.1 to 1 nM; in experiment [6] (read-out: HT29 IC50 w/o), above 100 nM; in experiment [7] (setting [10]), 0.1 to 1 nM; in experiment [7] (read-out: 786-O IC50 w/o) it was 10 to 100 nM. The IC50 was in the range of 0.01 to 0.1 nM in experiment [8] (setting [11]) and 1.1 to 10 nM in experiment [8] (read-out: NCI H292 IC 50 w/o).

For the molecule `CCCNC(=O)Nc1cccc(S(=O)(=O)Nc2cccc([C@@H](CC(=O)O)NC(=O)Nc3ccc(NC(=O)NCCOCCOCCOCCC(=O)NCCCC[C@H](NC(=O)CCOCCOCCOCCNC(=O)Nc4ccc(NC(=O)N[C@H](CC(=O)O)c5cccc(NS(=O)(=O)c6cccc(NC(=O)NCCC)c6)c5)cc4)C(=O)NCCOCCOCCOCCC(=O)N[C@@H](CC(=O)O)C(=O)N4CCC[C@H]4C(=O)N[C@H](C(=O)O[C@]4(CC)C(=O)OCc5c4cc4n(c5=O)Cc5cc6cc7c(cc6nc5-4)OCO7)C(C)C)cc3)c2)c1` [Compound 22], the AC50 is below 1 nM in experiment [1] (read-out: SUM149 AC50 +elastase); 11 to 100 nM in experiment [1] (read-out: SUM149 AC50 −elastase); 1.1 to 10 nM in experiment [2] (read-out: HT29 AC50 +elastase); above 100 nM in experiment [2] (read-out: HT29 AC50 −elastase); below 1 nM in experiment [3] (read-out: 786-O AC50 +elastase); above 100 nM in experiment [3] (read-out: 786-O AC50 −elastase). Also, the AC50 was below 1 nM in experiment [4] (read-out: NCI H292 AC50 +elastase) and 1.1 to 10 nM in experiment [4] (read-out: NCI H292 AC50 −elastase).

`CCCNC(=O)Nc1cccc(S(=O)(=O)Nc2cccc([C@@H](CC(=O)O)NC(=O)Nc3ccc(NC(=O)NCCN(C)CCN(C)CCN(C)CC(=O)N[C@@H](CC(N)=O)C(=O)N4CCC[C@H]4C(=O)N[C@H](C(=O)O[C@]4(CC)C(=O)OCc5c4cc4n(c5=O)Cc5cc6cc7c(cc6nc5-4)OCO7)C(C)C)cc3)c2)c1` [Compound 6, (7S)-7-ethyl-8,11-dioxo-7,8,11,13-tetrahydro-2H,10H-[1,3]dioxolo[4,5-g]pyrano[3′,4′:6,7] indolizino[1,2-b]quinolin-7-yl N-{2-[{2-[{2-[({4-[({(1R)-2-carboxy-1-[3-({3-[(propylcarbamoyl)amino]benzene-1-sulfonyl}amino)phenyl]ethyl}carbamoyl)amino]phenyl}carbamoyl)amino]ethyl}(methyl)amino]ethyl}(methyl)amino]ethyl}-N-methylglycyl-L-asparaginyl-L-prolyl-L-valinate]: the IC50 is below 0.01 nM in experiment [5] (SUM149 cells, with 10 nM elastase, 72 h, MTT, read-out: SUM149 IC50 w elastase); 0.1 to 1 nM in experiment [5] (SUM149 cells, without elastase, 72 h, MTT, read-out: SUM149 IC50 w/o); 0.01 to 0.1 nM in experiment [6] (HT29 cells, with 10 nM elastase, 72 h, MTT, read-out: HT29 IC50 w elastase); 1.1 to 10 nM in experiment [6] (HT29 cells, without elastase, 72 h, MTT, read-out: HT29 IC50 w/o); 0.01 to 0.1 nM in experiment [7] (786-O cells, with 10 nM elastase, 72 h, MTT, read-out: 786-O IC50 w elastase); 1.1 to 10 nM in experiment [7] (786-O cells, without elastase, 72 h, MTT, read-out: 786-O IC50 w/o). Also, the IC50 in experiment [8] (NCI H292 cells, with 10 nM elastase, 72 h, MTT, read-out: NCI H292 IC 50 w elastase) was 0.01 to 0.1 nM; in experiment [8] (NCI H292 cells, without elastase, 72 h, MTT, read-out: NCI H292 IC 50 w/o), 1.1 to 10 nM.

On to `CCCNC(=O)Nc1cccc(S(=O)(=O)Nc2cccc([C@H](CC(=O)O)NC(=O)Nc3ccc(NC(=O)NCCOCCOCCOCCC(=O)N[C@@H](CC(=O)O)C(=O)N4CCC[C@H]4C(=O)N[C@H](C(=O)O[C@]4(CC)C(=O)OCc5c4cc4n(c5=O)Cc5cc6cc7c(cc6nc5-4)OCO7)C(C)C)cc3)c2)c1` [Compound 15, (7S)-7-ethyl-8,11-dioxo-7,8,11,13-tetrahydro-2H,10H-[1,3]dioxolo[4,5-g]pyrano [3′,4′:6,7]indolizino[1,2-b]quinolin-7-yl N-(14-{4-[({(1S)-2-carboxy-1-[3-({3-[(propylcarbamoyl)amino]benzene-1-sulfonyl}amino)phenyl]ethyl}carbamoyl)amino]anilino}-14-oxo-4,7,10-trioxa-13-azatetradecanan-1-oyl)-L-alpha-aspartyl-L-prolyl-L-valinate-bis sodium salt], for which the IC50 in experiment [5] (setting [9]) is below 0.01 nM; in experiment [5] (read-out: SUM149 IC50 w/o) it was 1.1 to 10 nM; in experiment [6] (read-out: HT29 IC50 w elastase), 0.01 to 0.1 nM; in experiment [6] (read-out: HT29 IC50 w/o), 10 to 100 nM; in experiment [7] (setting [10]), 0.01 to 0.1 nM; in experiment [7] (read-out: 786-O IC50 w/o) it was 10 to 100 nM. For the same molecule, the figures for the IC50 in experiment [8] (setting [11]) and in experiment [8] (read-out: NCI H292 IC 50 w/o) were 0.01 to 0.1 nM and 1.1 to 10 nM, respectively.

On to `CCCNC(=O)Nc1cccc(S(=O)(=O)Nc2cccc([C@H](CC(=O)O)NC(=O)Nc3ccc(NC(=O)NCCOCCOCCOCCC(=O)N[C@@H](CC(=O)O)C(=O)N4CCC[C@H]4C(=O)N[C@H](C(=O)O[C@]4(CC)C(=O)OCc5c4cc4n(c5=O)Cc5c-4nc4cc(F)c(C)c6c4c5[C@@H](NC(C)=O)CC6)C(C)C)cc3)c2)c1` [Compound 13, disodium (1S,9S)-1-acetamido-9-ethyl-5-fluoro-4-methyl-10,13-dioxo-2,3,9,10,13,15-hexahydro-1H,12H-benzo[de]pyrano[3′,4′:6,7]indolizino[1,2-b]quinolin-9-yl 1-[(2S)-2-(carboxylatomethyl)-17-{4-[({(1S)-2-carboxylato-1-[3-({3-[(propylcarbamoyl)amino]benzene-1-sulfonyl}amino)phenyl]ethyl}carbamoyl)amino]anilino}-4,17-dioxo-7,10,13-trioxa-3,16-diazaheptadecanan-1-oyl]-L-prolyl-L-valinate], for which the IC50 in experiment [5] (setting [9]) was 0.01 to 0.1 nM; in experiment [5] (read-out: SUM149 IC50 w/o) it was 1.1 to 10 nM; in experiment [6] (read-out: HT29 IC50 w elastase), 0.1 to 1 nM; in experiment [6] (read-out: HT29 IC50 w/o) it was above 100 nM; in experiment [7] (setting [10]), 0.01 to 0.1 nM; in experiment [7] (read-out: 786-O IC50 w/o), 10 to 100 nM. Moreover, the IC50 was in the range of 0.01 to 0.1 nM in experiment [8] (setting [11]) and 1.1 to 10 nM in experiment [8] (read-out: NCI H292 IC 50 w/o).

Source of the values: US20250032477A1, “COMPOUNDS, PHARMACEUTICAL COMPOSITIONS, AND METHODS FOR THE TREATMENT, PREVENTION, OR MANAGEMENT OF HYPERPROLIFERATIVE DISORDERS” (VINCERX PHARMA GMBH, priority 2021, published 2025).
